Measurements taken from the RepoRT retention time repository.

experiment: Agilent ZORBAX 300 SB-C18, 150 × 1 mm, 3.5 µm; A: water + 0.01% heptafluorobutyric acid; B: acetonitrile + 0.01% heptafluorobutyric acid; gradient (min/%B) 0/0 100/90; settings: stereoisomer not certain

| SMILES | LC retention time |
| --- | --- |
| CC(=O)Oc1ccccc1C(=O)NC(C)(C)C | 11.2 min |
| S=C1NC2(CCCCC2)NN1c1ccccc1 | 13.2 min |
| Cn1ccc(C(=O)O)cc1=O | 5.27 min |
| CCCOC(=O)C1CCCCN1 (stereo not given) | 7.95 min |
| Cc1cccc(Cc2cnc[nH]2)c1C | 9.65 min |
| CCC1(CC)C(=O)NCC(C)C1=O (stereo not given) | 9.1 min |
| CN(c1ccccc1)c1nc(-n2ccnc2)nc(-n2ccnc2)n1 | 11.3 min |
| OC1CCCc2c1[nH]c1ccccc21 (stereo not given) | 11.4 min |
| CCn1ccc(C(C)C)c1-c1ccccc1 | 19 min |
| NCC1(O)CCCCC1 | 7.06 min |
| N=C(N)SCCSCCSC(=N)N | 7.21 min |
| COC(=O)CN | 3.64 min |
| Nc1cc(N)cc(C(=O)O)c1 | 4.34 min |
| CCNc1cccc(C)c1 | 8.38 min |
| NC(=O)CC(NC(N)=O)C(=O)O (stereo not given) | 1.47 min |
| CC1C(=O)CC[N+](C)(C)C1C (stereo not given) | 7.63 min |
| CC(=O)C1(O)CCC2C3CC(C)C4=CC(=O)CCC4(C)C3CCC21C (stereo not given) | 15.2 min |
| Cc1ccc(N)cc1C(=O)O | 7.34 min |
| O=c1c2ccccc2nc(-c2ccccc2)n1-c1ccccc1 | 13.8 min |
| Cc1cccc(C(=O)NNC(=O)c2ccccc2C(=O)c2ccccc2)c1 | 13.3 min |
| CN1CCOC(c2ccccc2)c2ccccc2C1 (stereo not given) | 10.1 min |
| CCC(c1ccc(C)cc1)N(NC(=O)C(O)(c1ccc(C)cc1)c1ccc(C)cc1)C(=O)c1ccccc1 (stereo not given) | 18.3 min |
| NCC(=O)c1ccccc1 | 7.35 min |

| SMILES | LC retention time |
| --- | --- |
| CN1N=C(C(=O)O)CCC1=O | 3.29 min |
| Cc1ccnc(C)c1 | 6.8 min |
| O=C(O)CNC(CO)(CO)CO | 1.66 min |
| Cc1ccc(N)c(N)c1 | 7.42 min |
| COc1ccc(C=NNC(N)=O)c(OC)c1 | 9.56 min |
| Cn1cnc2c1c(=O)[nH]c(=O)n2C | 6.5 min |
| c1nc2cc3ncc[nH]c3cc2n1 | 7.13 min |
| CNc1cnccn1 | 6.32 min |
| Nc1ccccc1NCCOc1ccccc1 | 11 min |
| O=C1CCC(=O)N1c1ccc(S(=O)(=O)O)cc1 | 1.56 min |
| O=C1CCCN1c1ccccc1 | 10 min |
| Cc1cccc(N)c1C | 8.05 min |
| CCOC(=O)c1ccc(NC(=O)C2CC(=O)N(C3CCCCC3)C2)cc1 (stereo not given) | 13.2 min |
| NC(=O)CNc1ccc(C(N)=O)cc1 | 5.59 min |
| OCc1cccc(CO)n1 | 5.64 min |
| S=c1nc(C2CCCCC2)[nH][nH]1 | 8.76 min |
| Cc1cccc(C)n1 | 6.46 min |
| Cc1nc2ccccc2nc1COc1ccc2c(c1)OCO2 | 14.1 min |
| COC(=O)c1ccc(NC(=O)Cn2nc(C)c3ccccc3c2=O)cc1 | 11.9 min |
| O=C(O)CN=C1NC2(CCCCC2)Cc2ccccc21 | 9.36 min |
| CC(=O)NC(NC(C)=O)c1ccncc1 | 5.53 min |
| c1ccc(CN(CC2=NCCN2)c2ccccc2)cc1 | 10.1 min |
| CCCCCCCCNCCCCCCCC | 14.8 min |

| SMILES | LC retention time |
| --- | --- |
| Cc1nc(=S)c2ccccc2[nH]1 | 9.45 min |
| Cn1c(=O)c2c(ncn2C)n(C)c1=O | 7.49 min |
| COC(=O)COC(=O)c1ccccc1NC(=O)c1ccccc1 | 15.1 min |
| O=C(O)Cc1c(C(=O)O)[nH]c2cc(C(=O)O)ccc12 | 7.47 min |
| O=C1Cc2ccccc2N1 | 8.51 min |
| Nc1nc(N)nc(Cc2ccccc2)n1 | 7.96 min |
| CC(C)CNc1c(N)c(=O)oc2ccccc12 | 11.9 min |
| CC(C)OC(=O)C(C)Nc1n[nH]c(=O)[nH]c1=O (stereo not given) | 8.55 min |
| Cc1cc(C)c2c(CC(=O)NN(C)C)coc2c1 | 10.9 min |
| C#CCN(C)C | 4.22 min |
| CCOc1ccc(C=CC(=O)c2ccc(C)cc2)cc1 | 17.8 min |
| NC(=O)c1cc(O)c(O)c(O)c1 | 2.23 min |
| CN(C)c1ccccn1 | 6.81 min |
| CC(C)n1c2ccccc2c2ccccc21 | 18.2 min |
| Cc1ccc(-c2noc(-c3ccc(C)cc3)c2C)cc1 | 19.3 min |
| COC(=O)CCNC(C)Cc1ccccc1 (stereo not given) | 8.9 min |
| Cc1ccc(NC(=O)c2ccc(N)cc2)cc1 | 10.9 min |
| Cc1cncc(C)n1 | 7.44 min |
| C[N+](C)(CCOCc1ccccc1)CCOCc1ccccc1 | 11.7 min |
| Cc1[nH]c2ccccc2c1CCNC(=O)C1CCCN1C(=O)Nc1ccccc1 (stereo not given) | 12 min |
| NC(=O)NNC(=S)Nc1ccccc1 | 7.03 min |
| CCCCCCCCSCCSC(=N)N | 12.7 min |
| CC(C)C(N)C(C)(C)O (stereo not given) | 7.04 min |

| SMILES | LC retention time |
| --- | --- |
| CCCCOC(=O)C1C(C)=NC(=O)NC1c1ccc(CC)cc1 (stereo not given) | 14.3 min |
| CNC1CCCCC1NC (stereo not given) | 7.14 min |
| O=C(O)CNC(=O)Nc1ccccc1 | 7.74 min |
| c1cncc(-c2nnco2)c1 | 6.78 min |
| Cc1ccc(C(=O)NCCc2c(C)[nH]c3ccccc23)cc1 | 13.6 min |
| O=C(Nc1cccnc1)c1ccc(=O)[nH]n1 | 6.84 min |
| O=C(NCc1ccncc1)c1ccc(-c2ccccc2)cc1 | 10.2 min |
| O=c1[nH]c(-c2ccccc2)nc2ccccc12 | 11 min |
| CCCCc1ccc(NC(=O)Cc2ccc(OC)c(OC)c2)cc1 | 15.6 min |
| CCN(CC)CCNC(=O)c1ccccc1NC(=O)Nc1ccccc1 | 9.62 min |
| c1ccc(-n2ncc(-c3nn[nH]n3)n2)cc1 | 10.5 min |
| Cc1cccnn1 | 5.91 min |
| CC(C)NC(=O)c1ccc2ccccc2n1 | 13.1 min |
| CC(=O)N=Nc1c(O)[nH]c2ccccc12 | 7.66 min |
| O=C1CCNc2ccc(-c3ccccc3)cc21 | 13.1 min |
| CCCCc1c(O)n(-c2ccc(O)cc2)n(-c2ccccc2)c1=O | 12.8 min |
| CC(=O)c1ccc(-n2cccc2)cc1 | 13.2 min |
| Cc1ccc(-c2nc3ccccc3s2)cc1 | 17.9 min |
| CCN(CC)c1ccc(C(=O)NCC(C)C)cc1 | 11.7 min |
| CC(C)Cc1nc2ccccc2n1CC(C)C | 10.9 min |
| Cc1cccc(NC(=O)c2ccc3nccnc3c2)n1 | 9.62 min |
| c1ccc(Nc2ccccc2)cc1 | 15.4 min |
| c1cc(N2CCCC2)ccn1 | 7.65 min |

| SMILES | LC retention time |
| --- | --- |
| CN(CCc1ccccn1)Cc1ccccn1 | 7.79 min |
| Cc1ccccc1C(=O)NC1CC(C)(C)NC(C)(C)C1 | 8.46 min |
| CC(C)(N)CO | 4.39 min |
| CC(=O)C1C(=O)C=C(c2ccco2)CC1c1ccco1 (stereo not given) | 13.2 min |
| c1cnc2[nH]ccc2c1 | 7.27 min |
| CC(=O)Nc1ccc(O)c(NC(C)=O)c1 | 6.39 min |
| COc1ccc(-c2cnc3ccccc3n2)cc1 | 14.7 min |
| NCc1ccc2ncccc2c1 | 7.05 min |
| C(=NNc1nncc2ccccc12)c1cccnc1 | 8.37 min |
| O=C(NCCCCc1ccccc1)c1ccc2ccccc2n1 | 17.2 min |
| C=CCNC1CCCC1 | 7.45 min |
| CCCCn1ccnc1 | 7.5 min |
| c1ccc2c(c1)ccc1cccnc12 | 12.7 min |
| Cc1ccc(C)n1-c1ccc(C(=O)O)cc1 | 13 min |
| Cc1cc2n(n1)c1cc(C)nn1c1cc(C)nn21 | 11.1 min |
| CN(C)c1ccncc1N | 7.03 min |
| CCCCCCCCCC[N+](C)(C)C | 12.3 min |
| Cc1ccc2cc(C(=O)O)c(=O)[nH]c2c1 | 9.64 min |
| Cc1ccc(-c2ccc(CCC(=O)O)n2CC(=O)O)cc1 | 11.5 min |
| Cc1ccc(-c2ccccc2)nc1C | 8.93 min |
| CC12CCC(=O)C=C1CCC1C2CCC2(C)C1CCC2(C)O (stereo not given) | 14.5 min |
| CC1(N)CCC(C(C)(C)N)CC1 (stereo not given) | 7.19 min |
| Nc1ccc2[nH]ncc2c1 | 5.74 min |

| SMILES | LC retention time |
| --- | --- |
| CN(C)NC1=CC(=O)CC(c2ccccc2)C1 (stereo not given) | 10.4 min |
| CC(C)(C)c1ccc(-c2nc(NCc3cccnc3)c3ccccc3n2)cc1 | 10.9 min |
| CN1COc2ccc3ccccc3c2C1 | 9.56 min |
| Cc1ccc(NC2=NCCCS2)cc1 | 8.91 min |
| CCOC(=O)CC1CN(C)CCN1C (stereo not given) | 7.31 min |
| O=C(O)C1CCCc2c1[nH]c1ccccc21 (stereo not given) | 12.3 min |
| O=CN1CCNCC1 | 2.79 min |
| CC(C)=C(NC(=O)c1ccccc1)C(=O)NCCc1c(C)[nH]c2ccccc12 | 12.3 min |
| CC1=Nc2ccccc2Sc2ccccc21 | 14.5 min |
| c1cncc(CN=Nc2nc(N3CCCCC3)nc(N3CCCCC3)n2)c1 | 11.5 min |
| CCOC(=O)C1CCC(=O)N1 (stereo not given) | 6.88 min |
| CN1CC=C(C=Cc2ccco2)CC1 | 8.8 min |
| Cc1ccc(CSc2ncccn2)c(CSc2ncccn2)c1C | 16 min |
| O=CNC1CCCCC1 | 8.38 min |
| Cc1cc2ncn(Cc3c(C)c(C)cc(C)c3C)c2cc1C | 13 min |
| CCCCCCCCN1C2=C(C(=O)CC(C)(C)C2)C(c2ccccc2)C2=C1CC(C)(C)CC2=O | 20.9 min |
| CN1CC(C(=O)O)CC1=O (stereo not given) | 3.04 min |
| Cc1cccc(-n2c(C)cc(C=NNC(N)=S)c2C)c1C | 14.4 min |
| O=C(O)CCc1nn2c3ccccc3n(CC(=O)O)c2nc1=O | 7.51 min |
| O=C1NC(=O)C(c2ccccc2)(c2ccc(O)cc2)N1 (stereo not given) | 9.15 min |
